Here are results for 40 molecules from patent US9776979B2, “EBI2 modulators” (Sanford-Burnham Medical Research Institute, priority 2013, dated 2017).

Broadly, the IC50 is the concentration at which inhibition is half-maximal.

Sequence of EBI2 (P32249 whole entry): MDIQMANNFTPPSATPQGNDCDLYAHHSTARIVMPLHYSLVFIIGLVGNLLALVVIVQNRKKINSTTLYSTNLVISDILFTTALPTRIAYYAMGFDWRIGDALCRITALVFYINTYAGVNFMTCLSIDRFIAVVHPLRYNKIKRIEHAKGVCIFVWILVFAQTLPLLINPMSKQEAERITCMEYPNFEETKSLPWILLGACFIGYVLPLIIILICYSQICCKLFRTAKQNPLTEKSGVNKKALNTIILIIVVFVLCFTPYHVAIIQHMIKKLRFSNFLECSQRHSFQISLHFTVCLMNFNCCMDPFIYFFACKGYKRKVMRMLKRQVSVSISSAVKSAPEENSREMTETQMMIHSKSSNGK

The target of the assay is EBI2 (Homo sapiens, UniProt P32249). The assay is described as follows: Cell-based luminescent assay (EBI2 modulation). As to conditions: cell-based luminescence; 7a,25-OHC final assay concentration 80 nM; 60 minutes incubation; read-out: IC50. In outline:
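Cells plated overnight at 37° C, then exposed to compound at 4-5 uM final with 80 nM 7a,25-OHC agonist for 60 min at 37° C. Luminescence read after 60 min detection at 25° C in the dark; values normalized to neutral and stimulator controls and plate-pattern corrected.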
On to `O=C(/C=C/c1ccc(Br)cc1)N1CCN(C(=O)C2CCCC2)CC1` [Compound C82, (2E)-3-(4-bromophenyl)-1-[4-(cyclopentylcarbonyl)piperazinyl]prop-2-en-1-one], for which the IC50 was less than 100 nM. As for `O=C(C#Cc1ccc(C(F)(F)F)cc1)N1CCN(C(=O)c2ccc(C(F)(F)F)cc2)CC1` [Compound C84, 3-[4-(trifluoromethyl)phenyl]-1-(4-{[4-(trifluoromethyl)phenyl]carbonyl}piperazinyl)prop-2-yn-1-one], the figure is less than 100 nM; as for `O=C(c1cnc2cc(F)ccc2c1)N1CCN(C(c2ccccc2)c2ccccc2)CC1` [Compound C86, 4-(diphenylmethyl)piperazinyl 7-fluoro(3-quinolyl) ketone], less than 100 nM; as for `O=C(c1cc2ccccc2o1)N1CCN(C(c2ccccc2)c2ccccc2)CC1` [Compound C87, benzo[d]furan-2-yl 4-(diphenylmethyl)piperazinyl ketone], less than 100 nM. For `O=C(c1cc2cc(Cl)ccc2[nH]1)N1CCN(S(=O)(=O)CCc2ccccc2)CC1` [Compound C88, 5-chloroindol-2-yl 4-[(2-phenylethyl)sulfonyl]piperazinyl ketone], the IC50 is less than 100 nM. Consider `O=C(c1ccc(Cl)cc1)N1CCN(C(=O)c2cc3cc(Cl)ccc3[nH]2)CC1` [Compound C89, 5-chloroindol-2-yl 4-[(4-chlorophenyl)carbonyl]piperazinyl ketone], for which the IC50 was less than 100 nM. For `O=C(C#Cc1cccc(Cl)c1Cl)N1CCN(C(=O)c2ccc(F)cc2C(F)(F)F)CC1` [Compound C90, 3-(2,3-dichlorophenyl)-1-(4-{[4-fluoro-2-(trifluoromethyl)phenyl]carbonyl}piperazinyl)prop-2-yn-1-one], the IC50 was less than 100 nM. On to `O=C(/C=C/c1ccc(Br)cc1)N1CCN(Cc2ccc(Cl)cc2C(F)(F)F)CC1` [Compound C91, (2E)-3-(4-bromophenyl)-1-(4-{[4-chloro-2-(trifluoromethyl)phenyl]methyl}piperazinyl)prop-2-en-1-one], for which the IC50 was less than 100 nM.

For `O=C(C#Cc1cccc(Cl)c1)N1CCN(C(c2ccccc2)c2ccccc2)CC1` [Compound C92, 1-[4-(diphenylmethyl)piperazinyl]-3-(3-chlorophenyl)prop-2-yn-1-one], the half-inhibitory concentration (IC50) was less than 100 nM.

Regarding `O=C(/C=C/c1ccc(F)cc1)N1CCN(S(=O)(=O)/C=C/c2ccccc2)CC1` [Compound C95], the IC50 is less than 100 nM.

In the case of `O=C(/C=C/c1ccc(F)cc1)N1CCN(S(=O)(=O)c2ccc(Cl)cc2)CC1` [Compound C96, (2E)-1-{4-[(4-chlorophenyl)sulfonyl]piperazinyl}-3-(4-fluorophenyl)prop-2-en-1-one], the IC50 is less than 100 nM.

In the case of `COc1ccc2[nH]c(C(=O)N3CCN(C(c4ccccc4)c4ccccc4)CC3)cc2c1` [Compound C97, 4-(diphenylmethyl)piperazinyl 5-methoxyindol-2-yl ketone], the IC50 is less than 100 nM. Turning to `CCCCC(=O)N1CCN(C(=O)/C=C/c2ccc(Br)cc2)CC1` [Compound C98, (2E)-3-(4-bromophenyl)-1-(4-pentanoylpiperazinyl)prop-2-en-1-one], the 50% inhibitory concentration (IC50) was less than 100 nM. For `O=C(/C=C/c1ccccc1)N1CCN(C(=O)/C=C/c2ccccc2)CC1` [Compound C99, (2E)-1-[4-((2E)-3-phenylprop-2-enoyl)piperazinyl]-3-phenylprop-2-en-1-one], the IC50 was less than 100 nM. The result for `O=C(/C=C/c1ccc(F)cc1)N1CCN(S(=O)(=O)c2ccccc2Br)CC1` [Compound C100, (2E)-1-{4-[(2-bromophenyl)sulfonyl]piperazinyl}-3-(4-fluorophenyl)prop-2-en-1-one] reads less than 100 nM; that for `N#Cc1ccc(C(=O)N2CCN(C(=O)c3cc4cc(C(F)(F)F)ccc4[nH]3)CC2)cc1` [Compound C102, 4-[(4-{[5-(trifluoromethyl)indol-2-yl]carbonyl}piperazinyl)carbonyl]benzenecarbonitrile], less than 100 nM. With `CC(C)c1ccc(CN2CCN(C(=O)/C=C/c3ccc(Br)cc3)CC2)cc1` [Compound C103, (2E)-3-(4-bromophenyl)-1-(4-{[4-(methylethyl)phenyl]methyl}piperazinyl)prop-2-en-1-one], the half-inhibitory concentration (IC50) is less than 100 nM. On to `O=C(c1cc2ccc(Cl)cc2[nH]1)N1CCN(C(c2ccccc2)c2ccccc2)CC1` [Compound C104, 4-(diphenylmethyl)piperazinyl 6-chloroindol-2-yl ketone], for which the concentration for half-maximal inhibition (IC50) is less than 100 nM. On to `Cc1ccc2c(c1)cc(C(=O)N1CCN(C(c3ccccc3)c3ccccc3)CC1)n2C` [Compound C105, 1,5-dimethylindol-2-yl 4-(diphenylmethyl)piperazinyl ketone], for which the concentration for half-maximal inhibition (IC50) is less than 100 nM. For the molecule `O=C(/C=C/c1ccc(F)c(F)c1)N1CCN(C(c2ccccc2)c2ccccc2)CC1` [Compound C106, (2E)-3-(3,4-difluorophenyl)-1-[4-(diphenylmethyl)piperazinyl]prop-2-en-1-one], the 50% inhibitory concentration (IC50) is less than 100 nM. Regarding `Cc1cc(C)cc(CN2CCN(C(=O)/C=C/c3ccc(Br)cc3)CC2)c1` [Compound C109, (2E)-1-{4-[(3,5-dimethylphenyl)methyl]piperazinyl}-3-(4-bromophenyl)prop-2-en-1-one], the IC50 is less than 100 nM. Consider `O=C(c1ccc2ncccc2c1)N1CCN(C(c2ccccc2)c2ccccc2)CC1` [Compound C110, 4-(diphenylmethyl)piperazinyl 6-quinolyl ketone], for which the IC50 was less than 100 nM. The result for `Cc1ccc2[nH]c(C(=O)N3CCN(Cc4ccc5c(c4)OCO5)CC3)cc2c1` [Compound C111, 4-(2H-benzo[d]1,3-dioxolan-5-ylmethyl)piperazinyl 5-methylindol-2-yl ketone] reads less than 100 nM; that for `O=C(C#Cc1ccc2c(c1)OCO2)C1CCN(C(=O)c2ccc(F)cc2)CC1` [Compound C112, 3-(2H-benzo[3,4-d]1,3-dioxolen-5-yl)-1-{1-[(4-fluorophenyl)carbonyl](4-piperidyl)}prop-2-yn-1-one], less than 100 nM; that for `O=C(/C=C/c1ccccc1F)N1CCN(C(c2ccccc2)c2ccccc2)CC1` [Compound C113, (2E)-1-[4-(diphenylmethyl)piperazinyl]-3-(2-fluorophenyl)prop-2-en-1-one], less than 100 nM. Consider `O=C(C#Cc1ccc2c(c1)OCO2)N1CCN(C(=O)c2ccc(Cl)cc2)CC1` [Compound C114, 3-(2H-benzo[3,4-d]1,3-dioxolen-5-yl)-1-{4-[(4-chlorophenyl)carbonyl]piperazinyl}prop-2-yn-1-one], for which the IC50 is less than 100 nM. Turning to `O=C(c1ccc(I)cc1)N1CCN(C(=O)c2cc3cc(Cl)ccc3[nH]2)CC1` [Compound C115, 5-chloroindol-2-yl 4-[(4-iodophenyl)carbonyl]piperazinyl ketone], the half-inhibitory concentration (IC50) is less than 100 nM. As for `O=C(C#Cc1ccccc1)N1CCN(C(=O)c2ccc(F)cc2)CC1` [Compound C116, 1-{4-[(4-fluorophenyl)carbonyl]piperazinyl}-3-phenylprop-2-yn-1-one], the figure is less than 100 nM. For `O=C(C#Cc1cccc(Cl)c1)N1CCN(C(=O)c2ccc(C(F)(F)F)cc2)CC1` [Compound C117, 3-(3-chlorophenyl)-1-(4-{[4-(trifluoromethyl)phenyl]carbonyl}piperazinyl)prop-2-yn-1-one], the IC50 is less than 100 nM. The result for `CC(C)CC(=O)N1CCN(C(=O)/C=C/c2ccc(Br)cc2)CC1` [Compound C118, (2E)-3-(4-bromophenyl)-1-[4-(3-methylbutanoyl)piperazinyl]prop-2-en-1-one] reads less than 100 nM; that for `O=C(c1ccc(F)cc1)N1CCN(C(=O)c2cc3cc(Cl)ccc3[nH]2)CC1` [Compound C119, 5-chloroindol-2-yl 4-[(4-fluorophenyl)carbonyl]piperazinyl ketone], less than 100 nM; that for `O=C(C#Cc1ccc2c(c1)OCO2)N1CCN(C(=O)c2ccc(Br)cc2)CC1` [Compound C120, 3-(2H-benzo[3,4-d]1,3-dioxolen-5-yl)-1-{4-[(4-bromophenyl)carbonyl]piperazinyl}prop-2-yn-1-one], less than 100 nM.

Consider `Cc1ccc(C#CC(=O)N2CCN(Cc3ccc(F)cc3)CC2)cc1` [Compound C122, 1-{4-[(4-fluorophenyl)methyl]piperazinyl}-3-(4-methylphenyl)prop-2-yn-1-one], for which the concentration for half-maximal inhibition (IC50) was less than 100 nM. As to `O=C(c1cc2ccccc2s1)N1CCN(C(c2ccccc2)c2ccccc2)CC1` [Compound C123, benzo[b]thiophen-2-yl 4-(diphenylmethyl)piperazinyl ketone], the IC50 was less than 100 nM. On to `Cc1ccc(S(=O)(=O)N2CCN(C(=O)/C=C/c3ccc(F)cc3)CC2)cc1` [Compound C124, (2E)-3-(4-fluorophenyl)-1-{4-[(4-methylphenyl)sulfonyl]piperazinyl}prop-2-en-1-one], for which the IC50 is less than 100 nM. For `O=C(c1cnc2ccccc2c1)N1CCN(C(c2ccccc2)c2ccccc2)CC1` [Compound C125, 4-(diphenylmethyl)piperazinyl 3-quinolyl ketone], the IC50 is less than 100 nM. On to `O=C(c1cc2cc(F)ccc2[nH]1)N1CCN(C(c2ccccc2)c2ccccc2)CC1` [Compound C126, 4-(diphenylmethyl)piperazinyl 5-fluoroindol-2-yl ketone], for which the IC50 is less than 100 nM. In the case of `O=C(c1cccc(Cl)c1)N1CCN(C(=O)c2cc3cc(C(F)(F)F)ccc3[nH]2)CC1` [Compound C127, 4-[(3-chlorophenyl)carbonyl]piperazinyl 5-(trifluoromethyl)indol-2-yl ketone], the concentration for half-maximal inhibition (IC50) was less than 100 nM. Regarding `O=C(C#Cc1ccc(F)cc1)N1CCN(C(=O)c2ccc(F)cc2)CC1` [Compound C128, 3-(4-fluorophenyl)-1-{4-[(4-fluorophenyl)carbonyl]piperazinyl}prop-2-yn-1-one], the IC50 was less than 100 nM.

On to `O=C(C#Cc1cccc(Cl)c1)N1CCN(Cc2ccc(F)cc2)CC1` [Compound C129, 3-(3-chlorophenyl)-1-{4-[(4-fluorophenyl)methyl]piperazinyl}prop-2-yn-1-one], for which the 50% inhibitory concentration (IC50) was less than 100 nM.
